Experimental data taken from US9133157B2, “HIV protease inhibitors” (Merck Canada Inc., priority 2011, dated 2015).

Biological target: WT HIV-1 protease (Human immunodeficiency virus type 1 group M subtype B (isolate HXB2) (HIV-1), UniProt P04585)
Assay: Assay for inhibition of microbial expressed HIV protease (Procedure A, peptide substrate, HPLC fluorescence detection)
Assay type: biochemical
Details: WT HIV-1 protease 10 pM, substrate 400 micromolar, pH 5.5, 30 min preincubation, 1 hour at 30° C.; read-out: Enzyme inhibition IC50
How it was run: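 E. coli-expressed enzyme preincubated 30 min at room temperature with compound in 50 mM sodium acetate pH 5.5, 100 mM NaCl, 0.1% BSA. Reaction ran 1 h at 30° C with 400 micromolar Val-Ser-Gln-Asn-(betanaphthyl)Ala-Pro-Ile-Val substrate and 10 picomolar protease. After phosphoric acid quench, product was measured by C18 HPLC with fluorescence (ex 270/em 330 nm).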

Structure (SMILES) | IC50
CC(C)CN(C(CO)c1ccc(CNC(=O)C(NC(=O)c2ccccc2)C(c2ccccc2)c2ccccc2)s1)S(=O)(=O)c1ccc2ncsc2c1 (stereo not shown) [Example 128, N-[1-benzhydryl-2-[[5-[1-(1,3-benzothiazol-6-ylsulfonyl(isobutyl)amino)-2-hydroxy-ethyl]-2-thienyl]methylamino]-2-oxo-ethyl]benzamide] | 53 nM
COC(=O)N[C@H](C(=O)N[C@H](c1ccc([C@@H](CO)N(CCC(C)(C)C)S(=O)(=O)c2ccn3ccnc3c2)s1)C(F)(F)F)C(c1ccccc1)c1ccccc1 [Example 51, N-[(1S)-1-(5-{(1R)-1-[(3,3-dimethylbutyl)(imidazo[1,2-c]pyridin-7-ylsulfonyl)amino]-2-hydroxyethyl}thiophen-2-yl)-2,2,2-trifluoroethyl]-Nα-(methoxycarbonyl)-β-phenyl-L-phenylalaninamide] | 17.5 nM
COC(=O)N[C@H](C(=O)N[C@H](c1ccc([C@@H](CO)N(C(C)C)S(=O)(=O)c2ccc(C(N)=O)cc2)s1)C(F)(F)F)C(c1ccccc1)c1ccccc1 [Example 109, methyl [(1S)-2-{[(1)-1-(5-{(1R)-1-[{[4-(aminocarbonyl)phenyl]sulfonyl}(isopropyl)amino]-2-hydroxyethyl}-2-thienyl)-2,2,2-trifluoroethyl]amino}-1-(diphenylmethyl)-2-oxoethyl]carbamate] | 31.5 nM
COC(=O)N[C@H](C(=O)N[C@H](c1ccc([C@@H](CO)N(CCCC(F)(F)F)S(=O)(=O)c2ccc3ncsc3c2)s1)C(F)(F)F)C(c1ccccc1)c1ccccc1 [Example 105, N-[(1S)-1-(5-[(1R)-1-[(1,3-benzothiazol-6-ylsulfonyl)(4,4,4-trifluorobutyl)amino]-2-hydroxyethyl}thiophen-2-yl)-2,2,2-trifluoroethyl]-Nα-(methoxycarbonyl)-β-phenyl-L-phenylalaninamide] | 1.77 nM
COC(=O)N[C@H](C(=O)NCc1cnc(C(CO)N(CCC(C)C)S(=O)(=O)c2ccccc2)s1)C(c1ccccc1)c1ccccc1 (stereo partly drawn) [Example 2, N-[(2-{2-hydroxy-1-[(3-methylbutyl)(phenylsulfonyl)amino]ethyl}-1,3-thiazol-5-yl)methyl]-Nα-(methoxycarbonyl)-β-phenyl-L-phenylalaninamide] | 250 nM
COC(=O)N[C@H](C(=O)NCc1ccc([C@H](CO)N(Cc2cn[nH]c2)S(=O)(=O)c2ccc3scnc3c2)s1)C(c1ccccc1)c1ccccc1 [Example 33] | 96.6 nM
COC(=O)N[C@H](C(=O)NCc1ccc(C(CO)N(Cc2cc3cccnc3[nH]2)S(=O)(=O)c2ccc3scnc3c2)s1)C(c1ccccc1)c1ccccc1 (stereo partly shown) [Example 34] | 35 nM
COC(=O)N[C@H](C(=O)N[C@H](c1ccc([C@@H](CO)N(CCC(C)(C)C)S(=O)(=O)c2ccc(N)cn2)s1)C(F)(F)F)C(c1ccccc1)c1ccccc1 [Example 57, N-[(1S)-1-{5-[(1R)-1-{[(5-aminopyridin-2-yl)sulfonyl](3,3-dimethylbutyl)amino}-2-hydroxyethyl]thiophen-2-yl}-2,2,2-trifluoroethyl]-Nα-(methoxycarbonyl)-β-phenyl-L-phenylalaninamide] | 1.32 nM
COC(=O)N[C@H](C(=O)NCc1ccc([C@@H](CO)N(Cc2ccnc(OC)c2)S(=O)(=O)c2ccc3scnc3c2)s1)C(c1ccccc1)c1ccccc1 [Example 28] | 1.45 nM
COC(=O)N[C@H](C(=O)N[C@H](c1ccc([C@@H](CO)NS(=O)(=O)c2ccc(N)cc2)s1)C(F)(F)F)C(c1ccccc1)c1ccccc1 [Example 87, N-[(1S)-1-{5-[(1R)-1-{[(4-aminophenyl)sulfonyl]amino}-2-hydroxyethyl]thiophen-2-yl}-2,2,2-trifluoroethyl]-Nα-(methoxycarbonyl)-β-phenyl-L-phenylalaninamide] | 194 nM
COC(=O)N[C@H](C(=O)N[C@H](c1ccc([C@@H](CO)N(CCC(F)(F)F)S(=O)(=O)c2ccc3ncsc3c2)s1)C(F)(F)F)C(c1ccccc1)c1ccccc1 [Example 104, N-[(1S)-1-(5-{(1R)-1-[(1,3-benzothiazol-6-ylsulfonyl)(3,3,3-trifluoropropyl)amino]-2-hydroxyethyl}thiophen-2-yl)-2,2,2-trifluoroethyl]-Nα-(methoxycarbonyl)-β-phenyl-L-phenylalaninamide] | 0.85 nM
COC(=O)N[C@H](C(=O)NCc1ccc([C@@H](CO)N(CC2CC(F)(F)C2)S(=O)(=O)c2ccc3c(c2)CCC3O)s1)C(c1ccccc1)c1ccccc1 (stereo partly shown) [Example 37] | 5.65 nM
COC(=O)N[C@H](C(=O)NCc1ccc([C@@H](CO)N(CC(C)C)S(=O)(=O)c2cccc(CC(C)(C)O)c2)s1)C(c1ccccc1)c1ccccc1 [Example 14] | 4.1 nM
COC(=O)N[C@H](C(=O)N[C@H](c1ccc([C@@H](CO)N(CC(C)C)S(=O)(=O)c2ccc(N)cc2)s1)C(F)(F)F)C(c1ccccc1)c1ccccc1 [Example 60, N-[(1S)-1-{5-[(1R)-1-{[(4-aminophenyl)sulfonyl](2-methylpropyl)amino}-2-hydroxyethyl]thiophen-2-yl}-2,2,2-trifluoroethyy]-Nα-(methoxycarbonyl)-β-phenyl-L-phenylalaninamide] | 2.01 nM
COC(=O)N[C@H](C(=O)NCc1ccc([C@@H](CO)N(CC2CC(F)(F)C2)S(=O)(=O)c2ccc3c(c2)COCC3)s1)C(c1ccccc1)c1ccccc1 [Example 17] | 2.4 nM
CC(C)CN(C(CO)c1ccc(CNC(=O)C(NC(=O)c2ccccc2)C(c2ccccc2)c2cccc3ncccc23)s1)S(=O)(=O)c1ccc2ncsc2c1 (stereo not shown) [Example 133, N-[1-[[5-[1-(1,3-benzothiazol-6-ylsulfonyl(isobutyl)amino)-2-hydroxy-ethyl]-2-thienyl]methylcarbamoyl]-2-phenyl-2-(5-quinolyl)ethyl]benzamide] | 4.76 nM
COC(=O)N[C@H](C(=O)NCc1ccc([C@@H](CO)N(Cc2cn[nH]c2)S(=O)(=O)c2ccc3scnc3c2)s1)C(c1ccccc1)c1ccccc1 [Example 32] | 2.27 nM
COC(=O)N[C@H](C(=O)NCc1ccc([C@@H](CO)N(CC(C)C)S(=O)(=O)c2ccc3scnc3c2)s1)C(c1ccccc1)c1ccccc1 [Example 22] | 6.1 nM
[2H]C([2H])([2H])C([2H])(N([C@H](CO)c1ccc([C@@H](NC(=O)[C@@H](NC(=O)OC)C(c2ccccc2)c2ccccc2)C(F)(F)F)s1)S(=O)(=O)c1ccc2ncsc2c1)C([2H])([2H])[2H] [Example 106, N-[(1S)-1-{5-[(1R)-1-{(1,3-benzothiazol-6-ylsulfonyl)[(2-^2H)propan-2-yl]amino}-2-hydroxyethyl]thiophen-2-yl}-2,2,2-trifluoroethyl]-Nα-(methoxycarbonyl)-β-phenyl-L-phenylalaninamide] | 34.7 nM
COC(=O)N[C@H](C(=O)NCc1ccc([C@@H](CO)N(Cc2cnon2)S(=O)(=O)c2ccc(N)cc2)s1)C(c1ccccc1)c1ccccc1 [Example 19] | 33.8 nM
COC(=O)N[C@H](C(=O)N[C@H](c1ccc([C@@H](CO)N(CCC(C)(C)C)S(=O)(=O)c2cn3cc(Cl)nc3cn2)s1)C(F)(F)F)C(c1ccccc1)c1ccccc1 [Example 119, N-[(1S)-1-{5-[(1R)-1-{[(2-chloroimidazo[1,2-a]pyrazin-6-yl)sulfonyl](3,3-dimethylbutyl)amino}-2-hydroxyethyl]thiophen-2-yl}-2,2,2-trifluoroethyl]-Nα-(methoxycarbonyl)-β-phenyl-L-phenylalaninamide] | 13.9 nM
COC(=O)N[C@H](C(=O)N[C@H](c1ccc([C@@H](CO)N(CCC(C)(C)C)S(=O)(=O)c2ccc3[nH]ccc3c2)s1)C(F)(F)F)C(c1ccccc1)c1ccccc1 [Example 103, N-[(1S)-1-(5-{(1R)-1-[(3,3-dimethylbutyl)(1H-indol-5-ylsulfonyl)amino]-2-hydroxyethyl}thiophen-2-yl)-2,2,2-trifluoroethyl]-Nα-(methoxycarbonyl)-β-phenyl-L-phenylalaninamide] | 6.14 nM
